Molecules are shown by their SMILES.

The target in data set [1] is T1, 5-hydroxytryptamine receptor 1B (Homo sapiens, UniProt P28222). Kind of data set: Binding affinity against cloned human 5-hydroxytryptamine 1B receptor.
Data set [2] has as its target T2, 5-hydroxytryptamine receptor 1D (Homo sapiens, UniProt P28221). Kind of data set: Binding affinity against cloned human 5-hydroxytryptamine 1D receptor.
Data set [3] deals with T1, 5-hydroxytryptamine receptor 1B. Description: Intrinsic activity for human 5-hydroxytryptamine 1B receptor.
Data set [4] concerns the target T2, 5-hydroxytryptamine receptor 1D. Description: Intrinsic activity for human 5-hydroxytryptamine 1D receptor.
Data set [5] addresses T3, 5-hydroxytryptamine receptor 1A (Homo sapiens, UniProt P08908).
T3 sequence (P08908 whole entry): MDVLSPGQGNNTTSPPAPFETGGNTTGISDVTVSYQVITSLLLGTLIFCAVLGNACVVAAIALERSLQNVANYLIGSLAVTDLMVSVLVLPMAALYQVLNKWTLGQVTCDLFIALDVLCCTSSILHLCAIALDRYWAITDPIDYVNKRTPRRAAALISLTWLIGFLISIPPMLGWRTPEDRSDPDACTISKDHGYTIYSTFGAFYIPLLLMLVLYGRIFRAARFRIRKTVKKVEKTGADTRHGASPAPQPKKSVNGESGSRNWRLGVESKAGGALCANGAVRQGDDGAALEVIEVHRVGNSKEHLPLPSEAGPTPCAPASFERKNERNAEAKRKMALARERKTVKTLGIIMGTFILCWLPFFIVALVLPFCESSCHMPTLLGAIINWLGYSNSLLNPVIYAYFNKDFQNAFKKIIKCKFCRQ
Description: Binding affinity against cloned human 5-hydroxytryptamine 1A receptor.

For the next data set, the species on record is Homo sapiens. Description: Selectivity towards human 5-hydroxytryptamine 1B receptor to that of 5-hydroxytryptamine 1A receptor.
Data set [6] concerns the target Serotonin 1 receptors; 5-HT1B & 5-HT1D (Homo sapiens) (UniProt P28222+P28221). Description: Selectivity towards human 5-hydroxytryptamine 1B receptor to that of 5-hydroxytryptamine 1D receptor. In kind it is protein assay.
The next data set is filed under the species Rattus norvegicus. Description: Intrinsic clearance from rat liver microsomes. Type of data set: ADME, Microsome. Background: Liver microsomes are vesicles of endoplasmic reticulum, rich in cytochrome P450 enzymes.
Data set [7] is described as follows: Intrinsic clearance from human liver microsomes. In kind it is ADME, Microsome.

T1 sequence (P28222 whole entry): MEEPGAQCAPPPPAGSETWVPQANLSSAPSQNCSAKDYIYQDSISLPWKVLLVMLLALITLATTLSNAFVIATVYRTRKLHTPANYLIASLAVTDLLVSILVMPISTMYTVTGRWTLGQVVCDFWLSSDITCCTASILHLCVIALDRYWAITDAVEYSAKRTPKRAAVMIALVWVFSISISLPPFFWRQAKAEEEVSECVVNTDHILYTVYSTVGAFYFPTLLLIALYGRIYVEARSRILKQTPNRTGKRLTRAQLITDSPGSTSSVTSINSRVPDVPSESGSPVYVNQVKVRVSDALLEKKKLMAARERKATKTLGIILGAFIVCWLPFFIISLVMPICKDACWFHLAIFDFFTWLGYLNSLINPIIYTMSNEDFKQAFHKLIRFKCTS
T2 sequence (P28221 whole entry): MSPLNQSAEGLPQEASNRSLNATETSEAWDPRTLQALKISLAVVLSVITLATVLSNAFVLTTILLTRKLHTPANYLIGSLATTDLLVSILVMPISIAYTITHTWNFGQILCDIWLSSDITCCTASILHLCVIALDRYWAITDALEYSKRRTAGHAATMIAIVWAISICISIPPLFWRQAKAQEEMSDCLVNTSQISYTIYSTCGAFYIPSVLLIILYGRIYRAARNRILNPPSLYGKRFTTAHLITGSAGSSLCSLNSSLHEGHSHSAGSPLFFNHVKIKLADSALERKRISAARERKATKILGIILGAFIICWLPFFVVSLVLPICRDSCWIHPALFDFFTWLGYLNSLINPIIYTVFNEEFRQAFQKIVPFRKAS

For orientation: Ki means the dissociation constant of the complex between target and ligand, obtained from inhibition or displacement. Lower therefore signals tighter binding. For `COc1cc2c(cc1N1C[C@@H](C)N[C@@H](C)C1)N(C(=O)c1ccc(-c3ccc(-c4ncccn4)cc3C)cc1)CC2`, the Ki in [1] was 0.00501 µM; in data set [2] it was 0.251 µM.

In the case of `COc1cc2c(cc1N1CCN(C)CC1)N(C(=O)c1ccc(-c3cccc(C)n3)c3ccccc13)CC2`, the Intrinsic activity in [3] and in data set [4] was 0.9 throughout. Also, the Ki was 0.0126 µM in data set [5], 0.002 µM in data set [1] and 0.0251 µM in data set [2]. For the same compound, the Selectivity in the data set listed under Homo sapiens was 6; in data set [6], 12.

Regarding `CCN1[C@H](C)CN(c2cc3c(cc2OC)CCN3C(=O)c2ccc(-c3cccc(C)n3)c3ccccc23)C[C@@H]1C`, the Intrinsic clearance in the data set listed under Rattus norvegicus is 45 mL/min/g; in [7], 47 mL/min/g. Further, the Ki in [5] was 0.501 µM; in data set [1], 0.00398 µM; in data set [2] it was 0.126 µM. The Selectivity in the data set listed under Homo sapiens turned out to be 110; in [6] it was 28.

For the compound `COc1cc2c(cc1N1C[C@@H](C)N[C@@H](C)C1)N(C(=O)c1ccc(-c3ccc(C(C)=O)cc3C)cc1)CC2`, the Ki was 0.00316 µM in data set [1] and 0.398 µM in data set [2].

With `CCCN1[C@H](C)CN(c2cc3c(cc2OC)CCN3C(=O)c2ccc(-c3cccc(C)n3)c3ccccc23)C[C@@H]1C`, the Ki was 0.0794 µM in data set [5], 0.0316 µM in data set [1] and 0.158 µM in data set [2]. Moreover, the Selectivity stood at 2 in the data set filed under Homo sapiens and 4.7 in [6].

The compound `COc1cc2c(cc1N1C[C@@H](C)N(C)[C@@H](C)C1)N(C(=O)Cc1cccc(Cl)c1F)CC2` gave an Intrinsic activity in data set [3] of 0.1. Also, the Ki in [1] is 0.002 µM; in data set [2], 0.1 µM.

On to `COc1cc2c(cc1N1C[C@@H](C)N(C)[C@@H](C)C1)N(C(=O)c1ccc(-c3ccc(-c4noc(C)n4)cc3C)cc1)CC2`, for which the results for the Ki in data set [1] and in data set [2] were 0.00501 µM and 0.0158 µM, respectively.

`COc1cc2c(cc1N1C[C@@H](C)N(C)[C@@H](C)C1)N(C(=O)Cc1cccc(F)c1C(F)(F)F)CC2` showed an Intrinsic activity in data set [3] of 0.1. Moreover, the Ki is 0.00316 µM in [1] and 0.2 µM in data set [2].

As for `COc1cc2c(cc1N1C[C@@H](C)N(C)[C@@H](C)C1)N(C(=O)c1ccc(-c3cccc(C)n3)c3ccccc13)CC2`, the Intrinsic activity in data set [3] was 0.3. Further, the figures for the Intrinsic clearance (in the data set filed under Rattus norvegicus; in data set [7]) were 46 mL/min/g and 34 mL/min/g, respectively. Also, the Ki in data set [5] was 0.501 µM; in data set [1] it was 0.00316 µM; in [2] it was 0.1 µM. The Selectivity in the data set filed under Homo sapiens is 160; in [6], 30.

Regarding `COc1cc2c(cc1N1C[C@@H](C)N(C)[C@@H](C)C1)N(C(=O)c1ccc(-c3ccccc3C)cc1)CC2`, the Intrinsic activity in data set [3] is 0. Further, the Ki in data set [1] is 0.000631 µM; in data set [2], 0.0158 µM.

Consider `COc1cc2c(cc1N1C[C@@H](C)N(C)[C@@H](C)C1)N(C(=O)c1cccc(Cl)c1Cl)CC2`, for which the figures for the Ki in [1] and in data set [2] were 0.0126 µM and 0.251 µM, respectively.

Compound `COc1cc2c(cc1N1C[C@@H](C)N(C)[C@@H](C)C1)N(C(=O)Oc1cccc(C(F)(F)F)c1Cl)CC2` showed an Intrinsic activity in data set [3] of 0.15. In addition, the Ki in data set [1] is 0.00251 µM; in data set [2], 0.0251 µM.

As for `CN1CCN(c2cc3c(cc2Cl)CCN3C(=O)Nc2ccc(-c3ccncc3)c3ccccc23)CC1`, the Ki in data set [5] was 0.00398 µM; in data set [1], 0.00398 µM; in [2], 0.001 µM. The results for the Selectivity (in the data set listed under Homo sapiens; in data set [6]) were 1 and 0.25, respectively.

The compound `COc1cc2c(cc1N1C[C@@H](C)N[C@@H](C)C1)N(C(=O)c1ccc(-c3ccc(N4CCCC4=O)nc3C)cc1)CC2` displayed an Intrinsic activity in [3] of 0. Further, the Ki in data set [1] is 0.00501 µM; in [2], 0.398 µM.

The compound `COc1cc2c(cc1N1C[C@@H](C)N(C)[C@@H](C)C1)N(C(=O)Oc1cccc(C(F)(F)F)c1F)CC2` returned an Intrinsic activity in data set [3] of 0.1. The inhibition constant Ki in data set [1] was 0.00251 µM; in data set [2], 0.0316 µM.

In [3], `COc1cc2c(cc1N1C[C@@H](C)N(C)[C@@H](C)C1)N(C(=O)Nc1cccc(C(F)(F)F)c1Cl)CC2` showed an Intrinsic activity of 0. Besides, the Ki in [1] was 0.00251 µM; in data set [2] it was 0.0501 µM.

Compound `COc1cc2c(cc1N1C[C@@H](C)N[C@@H](C)C1)N(C(=O)c1ccc(-c3ccc(-c4noc(C)n4)cc3C)cc1)CC2` yielded an Intrinsic activity in data set [3] of 0. The values for the inhibitory constant (Ki) in data set [1] and in [2] were 0.00316 µM and 0.251 µM, respectively.

`COc1cc2c(cc1N1C[C@@H](C)N(C)[C@@H](C)C1)N(C(=O)Nc1cccc(Cl)c1F)CC2` registered an Intrinsic activity in data set [3] of 0.1. Moreover, the Ki in data set [1] is 0.00794 µM; in [2], 0.2 µM.

`COc1cc2c(cc1N1C[C@@H](C)N[C@@H](C)C1)N(C(=O)c1ccc(-c3cc(C)ncc3C)cc1)CC2`: the Intrinsic activity in data set [3] turned out to be 0. For the same compound, the figures for the Ki in [1] and in data set [2] were 0.00794 µM and 0.501 µM, respectively.

As to `COc1cc2c(cc1N1CCN(C)CC1)N(C(=O)Nc1cccc(Cl)c1Cl)CC2`, the Intrinsic activity was determined as 0.6 in data set [3] and 0.7 in data set [4]. Moreover, the Ki was 0.0501 µM in data set [5], 0.00398 µM in data set [1] and 0.0126 µM in data set [2]. Also, the Selectivity in the data set filed under Homo sapiens was found to be 13; in data set [6], 3.

Regarding `COc1cc2c(cc1N1C[C@@H](C)N(C)[C@@H](C)C1)N(C(=O)Nc1cccc(C(F)(F)F)c1F)CC2`, the Intrinsic activity in data set [3] was found to be 0. Further, the Ki in data set [1] was 0.00398 µM; in [2] it was 0.158 µM.

In data set [3], `COc1cc2c(cc1N1C[C@@H](C)N(C)[C@@H](C)C1)N(C(=O)Cc1cccc(C(F)(F)F)c1F)CC2` registered an Intrinsic activity of 0.1. Further, the figures for the Ki in data set [1] and in [2] were 0.00158 µM and 0.126 µM, respectively.

Turning to `COc1cc2c(cc1N1C[C@@H](C)N(C)[C@@H](C)C1)N(C(=O)Cc1cccc([N+](=O)[O-])c1)CC2`, the Intrinsic activity was 0.1 in data set [3] and 0.2 in data set [4]. In addition, the Ki in [5] was 2 µM; in data set [1], 0.0158 µM; in [2], 0.251 µM. Further, the values for the Selectivity (in the data set listed under Homo sapiens; in data set [6]) were 125 and 15, respectively.

For `COc1cc2c(cc1N1CCN(C)CC1)N(C(=O)Cc1cccc([N+](=O)[O-])c1)CC2`, the Ki is 0.158 µM in data set [5], 0.00794 µM in data set [1] and 0.0316 µM in [2]. Besides, the results for the Selectivity (in the data set listed under Homo sapiens; in data set [6]) were 20 and 4, respectively.

`COc1cc2c(cc1N1C[C@@H](C)N[C@@H](C)C1)N(C(=O)c1ccc(-c3cccc(C)n3)c3ccccc13)CC2`: the Intrinsic clearance in the data set listed under Rattus norvegicus came out at 12 mL/min/g; in data set [7], 14 mL/min/g. Further, the figures for the Ki in [5], in data set [1] and in [2] were 1 µM, 0.0501 µM and 0.126 µM, respectively. The Selectivity amounted to 21 in the data set filed under Homo sapiens and 2.8 in data set [6].

Consider `COc1cc2c(cc1N1C[C@@H](C)N(C)[C@@H](C)C1)N(C(=O)Nc1cccc(Cl)c1Cl)CC2`, for which the Intrinsic activity in data set [3] and in [4] was 0.1 throughout. Moreover, the Intrinsic clearance (in the data set listed under Rattus norvegicus; in data set [7]) was 3 mL/min/g throughout. Besides, the Ki in data set [1] is 0.00794 µM; in data set [2] it was 0.0794 µM. Also, the Selectivity turned out to be 200 in the data set listed under Homo sapiens and 10 in data set [6].

As to `COc1cc2c(cc1N1C[C@@H](C)N(C)[C@@H](C)C1)N(C(=O)c1cccc(Cl)c1)CC2`, the Ki is 0.02 µM in data set [1] and 0.251 µM in data set [2].
